# Source: US7910559B2, “Decladinosyl-macrolides with anti-inflammatory activity” (GlaxoSmithKline istrazivacki centar Zagreb d.o.o., priority 2005, dated 2011)
# Like-named read-outs stand apart in the source and are kept apart here.
# Experiments:
# Assay type in all cases: cell-based
# human TNF-α = test: Inhibition of TNF-α production by stimulated human peripheral blood leukocytes in vitro (ELISA); conditions: Homo sapiens, Leukocyte, PBL, read-out: Percentage of inhibition of TNF-α production; for inhibition at 10 µM: compound 10 μM; for inhibition at 50 µM: compound 50 μM
# Protocol: (§1) Substances, used in in vitro experiments, were dissolved in dimethyl sulfoxide (DMSO) (Kemika, Croatia) at concentrations of 50 mM and 10 mM and were further diluted to the final concentrations of […] in 1 mL Dulbecco's modified Eagle medium (DMEM) supplemented with 1% heat inactivated fetal bovine serum (FBS), 1% glutamax, 50 U/ml penicillin, 50 μg/ml streptomycin and 2.5 μg/mL Fungizone (amphotericin B). Media and all media supplements were purchased from Gibco, Australia, except FBS that was from Sigma, USA.
# (§2) Peripheral blood leukocytes (PBL) were obtained from venous blood of healthy volunteers by sedimentation on 2% dextran T-500 (Amersham Biosciences, USA) and subsequent centrifugations of leukocyte-rich plasma.
# (§3) Peripheral blood leukocytes (PBL), isolated as described above, were seeded in a 48-well plate at a concentration of 3-5×10^6 cell per well in culture medium consisting of RPMI 1640 medium (Institute of Immunology, Croatia) supplemented with 10% heat-inactivated fetal calf serum (FCS, Biowhittaker, USA), 100 U/ml penicillin (Gibco, Australia), 100 μg/ml streptomycin (Gibco, Australia) and 2 mM L-glutamine (Gibco, Australia), and preincubated with the tested compounds for 2 h at 37° C., in an atmosphere of 5% CO2, and 90% humidity. Afterwards, stimuli (Sigma, USA) were added to a final concentration of 2 μg/mL lipopolysaccharide (LPS), 1 μg/mL phorbol 12-myristate 13-acetate (PMA) or 120 μg/mL zymosan. Samples were incubated overnight under conditions described above. At the end of incubation supernatants were transferred to eppendorf tubes and centrifuged for 10 min at 1500 g. Concentrations of human TNF-α, IL-1β, IL-6 and IL-8 were determined in cell supernatants by sandwich ELISA, using capture and detection antibodies (R&D, USA) according to manufacturer's recommendations.
# (§4) Inhibition (as percentage) was calculated using the following formula: % inhibition=(1−concentration of cytokines in sample/concentration of cytokines in positive control)×100 where “positive control” refers to stimulated samples not treated with substances.
# human IL-1β = test: Inhibition of IL-1β production by stimulated human peripheral blood leukocytes in vitro (ELISA); conditions: Homo sapiens, Leukocyte, PBL, read-out: Percentage of inhibition of IL-1β production; for inhibition at 10 µM: compound 10 μM; for inhibition at 50 µM: compound 50 μM
# Protocol: as §1, §2, §3, §4
# human IL-6 = test: Inhibition of IL-6 production by stimulated human peripheral blood leukocytes in vitro (ELISA); conditions: Homo sapiens, Leukocyte, PBL, read-out: Percentage of inhibition of IL-6 production; for inhibition at 10 µM: compound 10 μM; for inhibition at 50 µM: compound 50 μM
# Protocol: as §1, §2, §3, §4
# human IL-8 = test: Inhibition of IL-8 production by stimulated human peripheral blood leukocytes in vitro (ELISA); conditions: Homo sapiens, Leukocyte, PBL, read-out: Percentage of inhibition of IL-8 production; for inhibition at 10 µM: compound 10 μM; for inhibition at 50 µM: compound 50 μM
# Protocol: as §1, §2, §3, §4
# A549 = conditions: human, 24 h
# Protocol: (§5) Anti-inflammatory activity of compounds, i.e. observed inhibition of cytokine production and inhibition of proliferation in vitro, is not a consequence of their cytotoxicity.
# (§6) Measurement of the succinate dehydrogenase activity in living cells was performed in order to assess the cytotoxicity of compounds of the invention. Cells were cultured for 24 hours in RPMI medium as described above at 37° C., in the presence of the tested compounds at concentrations of 50 μM and 12.5 μM. Afterwards, MTT [3-(4,5-dimethylthiazole-2-yl)-2,5-diphenyl tetrazolium bromide] (Promega, USA) as detection reagent was added and incubated for 0.5-2 hours. The amount of produced MTT-Formazan was determined spectrophotometrically at 490 nm (Mosmann, J. Immunol. Methods, 1983, 65: 55-63).
# (§7) Percentage of viable cells was calculated using the following formula: % viable cells=[…]
# Hep G2 = conditions: human, 24 h
# Protocol: as §5, §6, §7
# THP-1 = conditions: human, 24 h
# Protocol: as §5, §6, §7
Structure (SMILES),inhibition at 10 µM (human TNF-α; LPS stimulation) [%],inhibition at 50 µM (human TNF-α; LPS stimulation) [%],inhibition at 10 µM (human TNF-α; PMA stimulation) [%],inhibition at 50 µM (human TNF-α; PMA stimulation) [%],inhibition at 10 µM (human TNF-α; zymosan stimulation) [%],inhibition at 50 µM (human TNF-α; zymosan stimulation) [%],inhibition at 10 µM (human IL-1β; LPS stimulation) [%],inhibition at 50 µM (human IL-1β; LPS stimulation) [%],inhibition at 10 µM (human IL-1β; PMA stimulation) [%],inhibition at 50 µM (human IL-1β; PMA stimulation) [%],inhibition at 10 µM (human IL-1β; zymosan stimulation) [%],inhibition at 50 µM (human IL-1β; zymosan stimulation) [%],inhibition at 10 µM (human IL-6; LPS stimulation) [%],inhibition at 50 µM (human IL-6; LPS stimulation) [%],inhibition at 10 µM (human IL-6; PMA stimulation) [%],inhibition at 50 µM (human IL-6; PMA stimulation) [%],inhibition at 10 µM (human IL-6; zymosan stimulation) [%],inhibition at 50 µM (human IL-6; zymosan stimulation) [%],inhibition at 10 µM (human IL-8; LPS stimulation) [%],inhibition at 50 µM (human IL-8; LPS stimulation) [%],further results
"CC[C@H]1OC(=O)[C@H](C)[C@@H](OC(=O)CCN(CC)CC)[C@H](C)[C@@H](O[C@@H]2O[C@H](C)C[C@H](NC)[C@@H]2O)[C@](C)(OC)C[C@@H](C)C(=O)N[C@H](C)[C@@H](O)[C@]1(C)O [Example 10, 3-O-(3-Diethylamino-propionyl)-3-O-decladinosyl-3′-N-demethyl-6-O-methyl-9a-aza-9a-homoerythromycin A]",6,65,68,78,10,75,70,88,80,94,78,100,35,92,69,92,40,100,13,77,inhibition at 10 µM (human IL-8; PMA stimulation): 23%; inhibition at 50 µM (human IL-8; PMA stimulation): 76%; inhibition at 10 µM (human IL-8; zymosan stimulation): 6%; inhibition at 50 µM (human IL-8; zymosan stimulation): 82%; Percentage of viable cells after treatment (A549; 12.5 μM): >80%; Percentage of viable cells after treatment (A549; 50 μM): >90%; Percentage of viable cells after treatment (Hep G2; 12.5 μM): 100%; Percentage of viable cells after treatment (Hep G2; 50 μM): 100%; Percentage of viable cells after treatment (THP-1; 12.5 μM): 100%; Percentage of viable cells after treatment (THP-1; 50 μM): 100%
"CC[C@H]1OC(=O)[C@H](C)[C@@H](OC(=O)CCN(C)CCO)[C@H](C)[C@@H](O[C@@H]2O[C@H](C)C[C@H](N(C)C)[C@H]2O)[C@](C)(OC)C[C@@H](C)C(=O)N[C@H](C)[C@@H](O)[C@]1(C)O [Example 23, 6-O-Methyl-3-O-decladinosyl-3-O-{3-[(2-Hydroxy-ethyl)-methyl-amino]-propionyl}-9a-aza-9a-homoerythromycin A]",0,97,58,79,0,96,73,100,81,98,70,100,8,100,51,92,26,100,0,95,inhibition at 10 µM (human IL-8; PMA stimulation): 0%; inhibition at 50 µM (human IL-8; PMA stimulation): 90%; inhibition at 10 µM (human IL-8; zymosan stimulation): 0%; inhibition at 50 µM (human IL-8; zymosan stimulation): 98%; Percentage of viable cells after treatment (A549; 12.5 μM): 100%; Percentage of viable cells after treatment (A549; 50 μM): >95%; Percentage of viable cells after treatment (Hep G2; 12.5 μM): 100%; Percentage of viable cells after treatment (Hep G2; 50 μM): 100%; Percentage of viable cells after treatment (THP-1; 12.5 μM): 100%; Percentage of viable cells after treatment (THP-1; 50 μM): 100%
"CC[C@H]1OC(=O)[C@H](C)[C@@H](OC(=O)CCN2CCN(CCN(C)C)CC2)[C@H](C)[C@@H](O[C@@H]2O[C@H](C)C[C@H](N(C)C)[C@H]2O)[C@](C)(OC)C[C@@H](C)C(=O)N[C@H](C)[C@@H](O)[C@]1(C)O [Example 19, 6-O-Methyl-3-O-decladinosyl-3-O-{3-[4-(2-Dimethylamino-ethyl)-piperazin-1-yl]-propionyl}-9a-aza-9a-homoerythromycin A]",11,7,53,82,18,12,44,73,66,86,35,80,16,56,56,61,19,44,6,32,inhibition at 10 µM (human IL-8; PMA stimulation): 14%; inhibition at 50 µM (human IL-8; PMA stimulation): 0%; inhibition at 10 µM (human IL-8; zymosan stimulation): 9%; inhibition at 50 µM (human IL-8; zymosan stimulation): 26%; Percentage of viable cells after treatment (A549; 12.5 μM): 100%; Percentage of viable cells after treatment (A549; 50 μM): >95%; Percentage of viable cells after treatment (Hep G2; 12.5 μM): 100%; Percentage of viable cells after treatment (Hep G2; 50 μM): 100%; Percentage of viable cells after treatment (THP-1; 12.5 μM): 100%; Percentage of viable cells after treatment (THP-1; 50 μM): 100%
"CC[C@H]1OC(=O)[C@H](C)[C@@H](OC(=O)CCN(CC)CC)[C@H](C)[C@@H](O[C@@H]2O[C@H](C)C[C@H](N(C)C)C2O)[C@](C)(O)C[C@@H](C)CN(C)[C@H](C)[C@@H](O)[C@]1(C)O (stereo in doubt) [Example 12, 3-O-(3-Diethylamino-propionyl)-3-O-decladinosyl-azithromycin]",22,0,30,75,33,0,50,71,54,92,29,72,9,19,43,93,0,96,16,51,inhibition at 10 µM (human IL-8; PMA stimulation): 31%; inhibition at 50 µM (human IL-8; PMA stimulation): 27%; inhibition at 10 µM (human IL-8; zymosan stimulation): 20%; inhibition at 50 µM (human IL-8; zymosan stimulation): 52%; Percentage of viable cells after treatment (A549; 12.5 μM): >90%; Percentage of viable cells after treatment (A549; 50 μM): >90%; Percentage of viable cells after treatment (Hep G2; 12.5 μM): >95%; Percentage of viable cells after treatment (Hep G2; 50 μM): >90%; Percentage of viable cells after treatment (THP-1; 12.5 μM): >90%; Percentage of viable cells after treatment (THP-1; 50 μM): 100%
